Drawing on the NIST ThermoML archive (doi:10.1021/je1000582), this text covers activity coefficient for 28 molecules.

This data set is described as follows: activity coefficient (dimensionless); of the first substance listed, at infinite dilution; xn = mol fraction of the nth substance listed. The following applies: 101 kPa, Liquid, Chromatography, x1 = 0.

± gives the expanded uncertainty stated by the source.

Regarding `Cc1ccccc1C` [1,2-dimethylbenzene] + CCCC[n+]1cccc(C)c1.O=S(=O)([O-])C(F)(F)F, the activity coefficient came out at 2.16 ± 0.15 (318.15 K); 2.2 ± 0.15 (328.15 K); 2.25 ± 0.15 (338.15 K); 2.29 ± 0.16 (348.15 K); 2.33 ± 0.16 (358.15 K).
For `Cc1cccc(C)c1` [1,3-dimethylbenzene] + CCCC[n+]1cccc(C)c1.O=S(=O)([O-])C(F)(F)F the same measures were 2.57 ± 0.17, 2.62 ± 0.18, 2.67 ± 0.18, 2.71 ± 0.18 and 2.76 ± 0.19.
The corresponding values for `Cc1ccc(C)cc1` [1,4-dimethylbenzene] + CCCC[n+]1cccc(C)c1.O=S(=O)([O-])C(F)(F)F are 2.46 ± 0.17, 2.52 ± 0.17, 2.57 ± 0.17, 2.62 ± 0.18 and 2.68 ± 0.18.
Regarding `C=CCCCCC` [1-heptene] + CCCC[n+]1cccc(C)c1.O=S(=O)([O-])C(F)(F)F, the activity coefficient (308.15 K) was found to be 17.1 ± 1.2; the activity coefficient (318.15 K) was 16.4 ± 1.1; the activity coefficient (328.15 K) was found to be 15.9 ± 1.1; the activity coefficient (338.15 K) worked out at 15.4 ± 1.1; the activity coefficient (348.15 K) was 15 ± 1; the activity coefficient (358.15 K) is 14.5 ± 1.
Take `C#CCCCCC` [1-heptyne] + CCCC[n+]1cccc(C)c1.O=S(=O)([O-])C(F)(F)F: the activity coefficient (308.15 K) turned out to be 4.09 ± 0.28; the activity coefficient (318.15 K) came to 4.18 ± 0.28; the activity coefficient (328.15 K) turned out to be 4.28 ± 0.29; the activity coefficient (338.15 K) is 4.37 ± 0.3; the activity coefficient (348.15 K) was found to be 4.46 ± 0.3; the activity coefficient (358.15 K) was found to be 4.53 ± 0.31.
Consider `C#CCCCC` [1-hexyne] + CCCC[n+]1cccc(C)c1.O=S(=O)([O-])C(F)(F)F, for which the activity coefficient (308.15 K) was 2.86 ± 0.19; the activity coefficient (318.15 K) amounted to 2.94 ± 0.2; the activity coefficient (328.15 K) worked out at 3.03 ± 0.21; the activity coefficient (338.15 K) was found to be 3.11 ± 0.21; the activity coefficient (348.15 K) came out at 3.19 ± 0.22; the activity coefficient (358.15 K) came out at 3.27 ± 0.22.
Take `C#CCCCCCC` [1-octyne] + CCCC[n+]1cccc(C)c1.O=S(=O)([O-])C(F)(F)F: the activity coefficient worked out at 5.88 ± 0.4 (318.15 K); 5.97 ± 0.41 (328.15 K); 6.05 ± 0.41 (338.15 K); 6.14 ± 0.42 (348.15 K); 6.23 ± 0.42 (358.15 K).
On to `C=CCCC` [1-pentene] + CCCC[n+]1cccc(C)c1.O=S(=O)([O-])C(F)(F)F, for which the activity coefficient was found to be 8.67 ± 0.59 (308.15 K); 8.44 ± 0.58 (318.15 K); 8.23 ± 0.56 (328.15 K); 8.03 ± 0.55 (338.15 K); 7.88 ± 0.54 (348.15 K); 7.73 ± 0.53 (358.15 K).
Regarding `COC(C)(C)C` [2-methoxy-2-methylpropane] + CCCC[n+]1cccc(C)c1.O=S(=O)([O-])C(F)(F)F, the activity coefficient was 4.21 ± 0.29 (308.15 K); 4.22 ± 0.29 (318.15 K); 4.23 ± 0.29 (328.15 K); 4.23 ± 0.29 (338.15 K); 4.24 ± 0.29 (348.15 K); 4.24 ± 0.29 (358.15 K).
Take `CC(C)=O` [acetone] + CCCC[n+]1cccc(C)c1.O=S(=O)([O-])C(F)(F)F: the activity coefficient runs as follows: (308.15 K) 0.743 ± 0.049; (318.15 K) 0.752 ± 0.049; (328.15 K) 0.762 ± 0.05; (338.15 K) 0.77 ± 0.05; (348.15 K) 0.776 ± 0.051; (358.15 K) 0.783 ± 0.051.
Take `c1ccccc1` [benzene] + CCCC[n+]1cccc(C)c1.O=S(=O)([O-])C(F)(F)F: the activity coefficient was 1.2 ± 0.08 (308.15 K); 1.23 ± 0.08 (318.15 K); 1.25 ± 0.08 (328.15 K); 1.27 ± 0.08 (338.15 K); 1.29 ± 0.08 (348.15 K); 1.31 ± 0.09 (358.15 K).
Take `CCCCO` [butan-1-ol] + CCCC[n+]1cccc(C)c1.O=S(=O)([O-])C(F)(F)F: the activity coefficient was 1.42 ± 0.09 (318.15 K); 1.34 ± 0.09 (328.15 K); 1.26 ± 0.08 (338.15 K); 1.2 ± 0.08 (348.15 K); 1.15 ± 0.07 (358.15 K).
For the molecule `C1CCCCCC1` [cycloheptane] + CCCC[n+]1cccc(C)c1.O=S(=O)([O-])C(F)(F)F, the activity coefficient was found to be 16.4 ± 1.1 (308.15 K); 15.4 ± 1.1 (318.15 K); 14.6 ± 1 (328.15 K); 13.8 ± 0.9 (338.15 K); 13.2 ± 0.9 (348.15 K); 12.5 ± 0.9 (358.15 K).
As for `C1CCCCC1` [cyclohexane] + CCCC[n+]1cccc(C)c1.O=S(=O)([O-])C(F)(F)F, the activity coefficient came out at 13.2 ± 0.9 (308.15 K); 12.4 ± 0.8 (318.15 K); 11.7 ± 0.8 (328.15 K); 11.1 ± 0.8 (338.15 K); 10.6 ± 0.7 (348.15 K); 10.1 ± 0.7 (358.15 K).
Consider `C1CCCCCCC1` [cyclooctane] + CCCC[n+]1cccc(C)c1.O=S(=O)([O-])C(F)(F)F, for which the activity coefficient (318.15 K) was 19.8 ± 1.4; the activity coefficient (328.15 K) was found to be 18.6 ± 1.3; the activity coefficient (338.15 K) came out at 17.5 ± 1.2; the activity coefficient (348.15 K) was determined as 16.5 ± 1.1; the activity coefficient (358.15 K) turned out to be 15.7 ± 1.1.
For the molecule `C1CCCC1` [cyclopentane] + CCCC[n+]1cccc(C)c1.O=S(=O)([O-])C(F)(F)F, the activity coefficient is, setting by setting: (308.15 K) 9.4 ± 0.64; (318.15 K) 8.89 ± 0.61; (328.15 K) 8.51 ± 0.58; (338.15 K) 8.15 ± 0.56; (348.15 K) 7.8 ± 0.53; (358.15 K) 7.54 ± 0.51.
Consider `CCCCCCCCCC` [decane] + CCCC[n+]1cccc(C)c1.O=S(=O)([O-])C(F)(F)F, for which the activity coefficient is, setting by setting: (308.15 K) 104 ± 7.2; (318.15 K) 94.9 ± 6.5; (328.15 K) 87.6 ± 6; (338.15 K) 80.2 ± 5.5; (348.15 K) 74.6 ± 5.1; (358.15 K) 69.5 ± 4.8.
`CCOCC` [diethyl ether] + CCCC[n+]1cccc(C)c1.O=S(=O)([O-])C(F)(F)F: the activity coefficient is, setting by setting: (308.15 K) 4.29 ± 0.29; (318.15 K) 4.24 ± 0.29; (328.15 K) 4.18 ± 0.28; (338.15 K) 4.14 ± 0.28; (348.15 K) 4.1 ± 0.28; (358.15 K) 4.07 ± 0.28.
Turning to `CCCOCCC` [dipropyl ether] + CCCC[n+]1cccc(C)c1.O=S(=O)([O-])C(F)(F)F, the activity coefficient (308.15 K) amounted to 10.4 ± 0.7; the activity coefficient (318.15 K) came to 10.1 ± 0.7; the activity coefficient (328.15 K) was 9.86 ± 0.67; the activity coefficient (338.15 K) amounted to 9.6 ± 0.65; the activity coefficient (348.15 K) was 9.35 ± 0.64; the activity coefficient (358.15 K) was 9.14 ± 0.62.
As for `CCO` [ethanol] + CCCC[n+]1cccc(C)c1.O=S(=O)([O-])C(F)(F)F, the activity coefficient was 0.907 ± 0.058 (318.15 K); 0.867 ± 0.055 (328.15 K); 0.827 ± 0.053 (338.15 K); 0.79 ± 0.051 (348.15 K); 0.759 ± 0.05 (358.15 K).
For `CCc1ccccc1` [ethylbenzene] + CCCC[n+]1cccc(C)c1.O=S(=O)([O-])C(F)(F)F the same measures were 2.76 ± 0.19, 2.78 ± 0.19, 2.8 ± 0.19, 2.81 ± 0.19 and 2.83 ± 0.19.
On to `CCCCCCC` [heptane] + CCCC[n+]1cccc(C)c1.O=S(=O)([O-])C(F)(F)F, for which the activity coefficient was determined as 35.1 ± 2.4 (308.15 K); 32.7 ± 2.2 (318.15 K); 30.8 ± 2.1 (328.15 K); 29 ± 2 (338.15 K); 27.5 ± 1.9 (348.15 K); 26.1 ± 1.8 (358.15 K).
As for `C=CCCCC` [hex-1-ene] + CCCC[n+]1cccc(C)c1.O=S(=O)([O-])C(F)(F)F, the activity coefficient (308.15 K) was 11.9 ± 0.8; the activity coefficient (318.15 K) amounted to 11.5 ± 0.8; the activity coefficient (328.15 K) came out at 11.2 ± 0.8; the activity coefficient (338.15 K) is 10.9 ± 0.7; the activity coefficient (348.15 K) was found to be 10.6 ± 0.7; the activity coefficient (358.15 K) came to 10.3 ± 0.7.
For `CCCCCC` [hexane] + CCCC[n+]1cccc(C)c1.O=S(=O)([O-])C(F)(F)F, the activity coefficient (308.15 K) is 24.7 ± 1.7; the activity coefficient (318.15 K) was 23.2 ± 1.6; the activity coefficient (328.15 K) was 22.1 ± 1.5; the activity coefficient (338.15 K) was 20.9 ± 1.4; the activity coefficient (348.15 K) came to 20 ± 1.4; the activity coefficient (358.15 K) came to 19.1 ± 1.3.
For the molecule `CO` [methanol] + CCCC[n+]1cccc(C)c1.O=S(=O)([O-])C(F)(F)F, the activity coefficient runs as follows: (318.15 K) 0.642 ± 0.044; (328.15 K) 0.617 ± 0.043; (338.15 K) 0.592 ± 0.042; (348.15 K) 0.57 ± 0.041; (358.15 K) 0.551 ± 0.04.
On to `CCCCCCCCC` [nonane] + CCCC[n+]1cccc(C)c1.O=S(=O)([O-])C(F)(F)F, for which the activity coefficient turned out to be 71.7 ± 4.9 (308.15 K); 65.9 ± 4.5 (318.15 K); 61.1 ± 4.2 (328.15 K); 56.8 ± 3.9 (338.15 K); 53.2 ± 3.6 (348.15 K); 49.9 ± 3.4 (358.15 K).
For `C=CCCCCCC` [oct-1-ene] + CCCC[n+]1cccc(C)c1.O=S(=O)([O-])C(F)(F)F, the activity coefficient is, setting by setting: (308.15 K) 24.3 ± 1.7; (318.15 K) 23.2 ± 1.6; (328.15 K) 22.3 ± 1.5; (338.15 K) 21.5 ± 1.5; (348.15 K) 20.8 ± 1.4; (358.15 K) 20 ± 1.4.
On to `CCCCCCCC` [octane] + CCCC[n+]1cccc(C)c1.O=S(=O)([O-])C(F)(F)F, for which the activity coefficient worked out at 49.6 ± 3.4 (308.15 K); 46.3 ± 3.2 (318.15 K); 43.4 ± 3 (328.15 K); 40.7 ± 2.8 (338.15 K); 38.5 ± 2.6 (348.15 K); 36.2 ± 2.5 (358.15 K).
